Converted amounts (≈) assume the structure as drawn. Where two headings read alike, the source gives them in different places.

Data set [1] has as its system clinical trial participants. Also noted: cases of ALT or AST ≥ 3× ULN: unit not given here. As to conditions: cited from earlier work.
For another data set, the target named is T1, BSEP (Homo sapiens, UniProt O95342).
T1 construct: Solvo Biotechnology (Szeged, Hungary), contract laboratory that ran the assay
The data set can be described thus: BSEP vesicular transport inhibition assay. It counts as biochemical. As to conditions: for Vmax of taurocholate: BSEP vesicle assay; for BSEP inhibition type: from Km and Vmax changes / model fit; for inhibition of BSEP-mediated probe substrate transport: vesicular transport inhibition assay; for alpha (mixed inhibition model): BSEP. As to the method:
These assays were conducted by Solvo Biotechnology and overseen by DSSI.
(§1) To assess the functional impact of ubrogepant on the human ABC efflux transporters BSEP, MRP3, and MRP4, in vitro vesicular transport inhibition assays were conducted by Solvo Biotechnology (Szeged, Hungary). The ability of ubrogepant to inhibit the BSEP-mediated transport (and accumulation) of a probe substrate was tested at concentrations ranging from 0.04 – 30 μM, where the latter defined the upper limit of compound solubility in the BSEP assay buffer. For the MRP3 and MRP4 vesicle-based transporter assessments, ubrogepant concentrations of 0.1 to 70 μM were used. To assess the functional impact of ubrogepant on the human SLC (uptake) transporter NTCP, in vitro experiments were performed using HEK293 cells stably expressing NTCP. The ability of ubrogepant to inhibit NTCP-mediated uptake (and accumulation) of taurocholate was tested at concentrations ranging from 0.04 – 30 μM.
In the current project, additional assays were conducted to determine the Ki value and inhibition type for ubrogepant for BSEP-mediated bile acid transport. These assays were conducted by Solvo Biotechnology and overseen by DSSI. Briefly, BSEP inhibition studies were performed with multiple substrate concentrations (0.39 – 50 µM taurocholate) and multiple inhibitor concentrations (0.5 – 30 µM ubrogepant). Ki and inhibition type for ubrogepant were determined by fitting a mixed inhibition model to the untransformed data by nonlinear regression analysis. It was assumed that inhibition type for ubrogepant for other transporters (i.e., MRP3 and MRP4) was mixed with α= 5; this is a typical value for bile acid transporter inhibitors in the experience of the DSS team.
(§2) To assess the functional impact of MK-3207 on the human ABC efflux transporters BSEP, MRP3 and MRP4, in vitro vesicular transport inhibition assays were conducted by Solvo Biotechnology (Szeged, Hungary) and overseen by DSSI. BSEP transport was assessed in the presence of 0.5-30 µM MK-3207; MRP3 and MRP4 transport was assessed in the presence of 0.11-80 µM MK-3207. The upper limits of these ranges were determined by compound solubility in each assay buffer. NTCP transporter inhibition was assessed in NTCP-expressing HEK293 cells in the presence of 0.03 – 25 µM MK-3207.
In these experiments, taurocholic acid (TCA) transport was assessed at a range of MK-3207 concentrations (0.04 – 30 µM) as well as at a range of TCA media concentrations (0.39 – 50 µM). A Ki was then determined by fitting a mixed inhibition model to the inhibition data by nonlinear regression analysis.

Another data set relates to mouse. In words: Conventional nonclinical toxicology study, mouse.
For the next data set, the target named is T2, CYP3A4 (Homo sapiens, UniProt P08684).
T2 construct: expressed in transfected cells; host or cells: HEK293 Flp-In host cell line (Invitrogen/ThermoFisher Flp-In T-REx system)
The data set can be described thus: HEK293/CYP3A4 assay of Nrf2 stabilization and CYP3A4 degradation. Conditions: HEK293 cells with inducible CYP3A4, Western blot. Format: cell-based. From the text:
Specifically, these assays evaluated the potential of the 3 different CGRP receptor antagonists to form reactive metabolites that promote the stabilization of Nrf2 or covalently bind to CYP3A4, triggering its subsequent time-dependent degradation, as assessed by Western blot. To seek further confirmatory evidence for reactive metabolite formation, a HEK293 cell line expressing doxycycline inducible CYP3A4 P450 enzyme expression construct with a Flag tag epitope fused to the C-terminus was constructed and cloned using the Invitrogen/ThermoFisher Scientific Flp-In T-TEx system and the HEK293 Flp-In host cell line per standard protocol. […] Alternatively, this simplified single CYP test model might not allow for Nrf2 stabilization if sufficient quantities of the chemically reactive metabolite cannot be generated by CYP3A4, or cannot escape the catalytic site of CYP3A4, which would appear on Western blot using anti-Flag antibody as time-dependent CYP3A4 degradation.
On the technique in general: In western blotting, separated proteins are transferred to a membrane and probed.

Data set [2] is described as follows: Compound solubility limit in transporter assay buffer. Conditions: read-out: upper limit of compound solubility. It counts as physicochemical. As for the experimental part: as §1, §2
The subject of data set [3] is Nrf2 electrophilic stress and Nrf1 proteasomal stress pathways. In words: In vivo rat liver gene expression bioactivation liver response assay (BA-LRA). As to conditions: for maximum liver safe daily dose predicted from BA-LRA: human daily dose projected from rat BA-LRA score; for upregulation of pathways associated with electrophilic and proteasomal stress: rat liver gene expression studies; for BA-LRA score: also presented in Monroe et al., 2018. From the text:
A prediction of a clinical daily dose burden associated with reactive metabolite-mediated DILI potential was derived from a focused and integrated quantitative rat liver molecular gene expression signature optimized predominantly for Nrf2 electrophilic stress and Nrf1 proteasomal stress pathways to describe a bioactivation liver response assay (BA-LRA) result. […] The clinical dose is identified that projects DILI risk to exceed the optimized threshold calculation for each BA-LRA result.

The subject of a further data set is rats. In words: Conventional nonclinical toxicology study, rat. Format: in vivo. As to the method: Conventional animal toxicology studies in rats and monkeys were performed by Merck & Co, Inc (West Point, Pennsylvania).
[4] abbreviates: among the 5 patients with ALT > 3-fold ULN at > 500 mg daily, ref Hargreaves and Olesen, 2019, Hewitt et al., 2011.
Setting [5] is: MRP3 and MRP4 assay buffer, aqueous buffer.
[6] abbreviates: mixed inhibition model, nonlinear regression.

T1 sequence (O95342 whole entry): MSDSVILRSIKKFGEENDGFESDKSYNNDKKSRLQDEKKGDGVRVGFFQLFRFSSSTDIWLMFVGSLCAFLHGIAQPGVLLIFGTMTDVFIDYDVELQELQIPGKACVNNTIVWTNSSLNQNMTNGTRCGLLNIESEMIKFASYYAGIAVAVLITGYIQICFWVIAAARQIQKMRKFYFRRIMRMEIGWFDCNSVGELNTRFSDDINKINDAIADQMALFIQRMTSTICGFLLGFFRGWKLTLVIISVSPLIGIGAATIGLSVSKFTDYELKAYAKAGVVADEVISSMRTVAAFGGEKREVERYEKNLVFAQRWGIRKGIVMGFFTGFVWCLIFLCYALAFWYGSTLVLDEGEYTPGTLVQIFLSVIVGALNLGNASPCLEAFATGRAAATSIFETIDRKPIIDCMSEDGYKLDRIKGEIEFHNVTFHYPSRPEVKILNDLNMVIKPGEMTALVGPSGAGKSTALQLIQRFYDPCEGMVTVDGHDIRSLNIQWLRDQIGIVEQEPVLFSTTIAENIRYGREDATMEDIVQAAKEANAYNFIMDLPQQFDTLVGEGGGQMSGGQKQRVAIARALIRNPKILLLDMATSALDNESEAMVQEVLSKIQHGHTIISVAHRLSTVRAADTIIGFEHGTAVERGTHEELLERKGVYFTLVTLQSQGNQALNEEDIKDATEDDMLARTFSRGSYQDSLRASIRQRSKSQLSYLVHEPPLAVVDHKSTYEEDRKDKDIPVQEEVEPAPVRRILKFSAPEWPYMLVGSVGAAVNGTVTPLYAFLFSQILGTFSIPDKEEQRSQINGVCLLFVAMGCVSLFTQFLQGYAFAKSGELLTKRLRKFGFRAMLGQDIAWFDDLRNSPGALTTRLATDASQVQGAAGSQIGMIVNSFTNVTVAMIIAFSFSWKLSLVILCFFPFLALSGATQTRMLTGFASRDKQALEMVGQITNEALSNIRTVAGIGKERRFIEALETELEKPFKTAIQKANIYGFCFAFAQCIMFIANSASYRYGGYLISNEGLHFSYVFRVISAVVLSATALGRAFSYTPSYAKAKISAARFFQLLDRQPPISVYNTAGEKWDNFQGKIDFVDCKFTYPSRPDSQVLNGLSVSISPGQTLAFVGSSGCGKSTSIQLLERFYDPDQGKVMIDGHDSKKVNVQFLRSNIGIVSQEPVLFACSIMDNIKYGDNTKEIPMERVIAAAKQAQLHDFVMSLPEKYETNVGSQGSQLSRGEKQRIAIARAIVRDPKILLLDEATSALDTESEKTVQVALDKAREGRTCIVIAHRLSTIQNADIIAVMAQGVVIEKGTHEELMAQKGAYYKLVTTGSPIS
T2 sequence (P08684 whole entry): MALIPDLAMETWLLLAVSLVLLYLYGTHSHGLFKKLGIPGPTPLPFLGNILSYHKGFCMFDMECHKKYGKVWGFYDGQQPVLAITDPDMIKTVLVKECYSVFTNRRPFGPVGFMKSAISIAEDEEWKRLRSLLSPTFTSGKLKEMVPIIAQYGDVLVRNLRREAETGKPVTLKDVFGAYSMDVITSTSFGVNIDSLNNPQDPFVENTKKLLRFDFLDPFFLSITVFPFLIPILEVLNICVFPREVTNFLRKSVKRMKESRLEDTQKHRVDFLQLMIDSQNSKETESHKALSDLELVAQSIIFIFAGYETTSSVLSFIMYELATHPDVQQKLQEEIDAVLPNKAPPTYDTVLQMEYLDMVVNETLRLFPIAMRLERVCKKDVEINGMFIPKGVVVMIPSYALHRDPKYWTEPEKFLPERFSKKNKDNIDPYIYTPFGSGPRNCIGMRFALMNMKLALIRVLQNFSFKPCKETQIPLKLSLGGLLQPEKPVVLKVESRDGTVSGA

As a reminder, the Ki is a measure of affinity in units of concentration, obtained from inhibition or displacement. A word on the solubility: it is the concentration that dissolves in the medium under given conditions. In the case of `O=C(CN1C(=O)C2(CCCC2)NC[C@H]1c1cc(F)cc(F)c1)Nc1ccc2c(c1)C[C@@]1(C2)C(=O)Nc2ncccc21` [MK-3207], in data set [1] (setting [4]), the “patients symptomatic with Hy’s law” value is listed as 1. The “patients with > 20-fold ALT rises” value in data set [1] (setting [4]) is 3. For the same molecule, the “Clinical ALT > 3× ULN” value in data set [1] (daily doses > 500 mg, individuals dosed for more than 1 week, most responding given 600–900 mg per day, ref Hargreaves and Olesen, 2019, Hewitt et al., 2011) is 42% (5/12) among individuals dosed for more than 1 week; most responding were given 600–900 mg per day. For the same molecule, in data set [1] (daily doses of < 100 mg, ref Hargreaves and Olesen, 2019, Hewitt et al., 2011), the “ALT > 3-fold ULN after 2 weeks” value is 1%. The Vmax of taurocholate is 171.9 pmol/mg protein/min on BSEP (inhibitor 0.5 µM); 183.1 pmol/mg protein/min on BSEP (inhibitor 2.5 µM); 174.9 pmol/mg protein/min on BSEP (inhibitor 5 µM); 132.5 pmol/mg protein/min at BSEP (inhibitor 15 µM); 151.7 pmol/mg protein/min on BSEP (inhibitor 30 µM). The molecule further displayed a Ki at BSEP (competitive inhibition model) of 7.62 µM. Besides, the BSEP inhibition type entry on BSEP is recorded as “competitive model is presumed to be the most likely mode of inhibition”. Further, the “inhibition of BSEP-mediated probe substrate transport” value against BSEP is listed as “inhibited”. In addition, the “Pivotal conventional nonclinical toxicology study liver findings” value in the data set with mouse (6M mouse) and in the data set on rats (6M rat) was “no liver safety signal” each time. Also, the exposure margin stood at 12 × with mouse (6M mouse) and 25 × in the data set with rats (6M rat). Moreover, the “formation of reactive metabolites that covalently bind to CYP3A4 and result in its degradation” value (from here on “formation”) on CYP3A4 was “formed reactive metabolites that covalently bind to CYP3A4 and result in its degradation”. Also, the solubility in data set [2] (BSEP assay buffer) came out at 30 µM (≈ 16.7 µg/mL); in data set [2] (setting [5]) it was 80 µM (≈ 44.6 µg/mL). In addition, in data set [3], the “maximum liver safe daily dose predicted from BA-LRA” value is on record as 300 mg. The “upregulation of pathways associated with electrophilic and proteasomal stress” value (“upregulation of pathways associated” below) in data set [3] is “upregulated pathways associated with electrophilic and proteasomal stress”. For the same molecule, the BA-LRA score in data set [3] (rat liver, 600 mg/kg/day × 4 days) worked out at 0.34.
As for `C[C@@H]1[C@H](c2ccccc2)C[C@H](NC(=O)c2cnc3c(c2)C[C@@]2(C3)C(=O)Nc3ncccc32)C(=O)N1CC(F)(F)F` [Ubrogepant], the “ALT/AST ≥ 3-fold ULN, number of participants” value in data set [1] (100 mg QD 2 days on, 2 days placebo, alternating, 8 weeks, healthy adults, n = 256, ref Goadsby et al., 2019) is 2. Besides, in data set [1] (52-week long-term extension trial, 1230 people, ref Ailani et al., 2019), the “cases of ALT or AST ≥ 3× ULN” value is on record as 20. Also, the Vmax of taurocholate was 181.3 pmol/mg protein/min on BSEP (inhibitor 0.5 µM); 175.6 pmol/mg protein/min on BSEP (inhibitor 2.5 µM); 171.3 pmol/mg protein/min on BSEP (inhibitor 5 µM); 171.9 pmol/mg protein/min at BSEP (inhibitor 15 µM); 172.3 pmol/mg protein/min at BSEP (inhibitor 30 µM). Further, at BSEP (mixed inhibition model), the “alpha (mixed inhibition model)” value is 8.39. In addition, the BSEP inhibition type result at BSEP was “likely to be a mixed BSEP inhibitor”. In addition, at BSEP (setting [6]), the Ki turned out to be 38.1 µM. Also, the “inhibition of BSEP-mediated probe substrate transport” value against BSEP was “inhibited”. Besides, the “Pivotal conventional nonclinical toxicology study liver findings” value was “no liver safety signal” in the data set with mouse (3M mouse) and < 2× ALT with no liver histopathology with rats (6M rat). The exposure margin in the data set with mouse (3M mouse) was determined as 80 ×; in the data set with rats (6M rat) it was 70 ×. For the same molecule, the “formation” value at CYP3A4 is reported as “did not”. The solubility in data set [2] (BSEP assay buffer, aqueous buffer) came to 30 µM (≈ 16.5 µg/mL); in data set [2] (setting [5]), 70 µM (≈ 38.5 µg/mL). The “upregulation of pathways associated” value in data set [3] is given as “did not”. The BA-LRA response result in data set [3] (rat liver, 7 days with 750 mg/kg) is reported as “No BA-LRA response”.
What is called IC50 is the concentration needed to halve the response being measured. Regarding `O=C(N[C@@H]1CC[C@@H](c2cccc(F)c2F)CN(CC(F)(F)F)C1=O)N1CCC(n2c(=O)[nH]c3ncccc32)CC1` [Telcagepant], the “Clinical ALT > 3× ULN” value is 1.9% (5/258) ([Ho et al., 2014]) in data set [1] (140 mg BID 12 weeks, ref Ho et al., 2014); 1.9% in data set [1] (140 mg BID 12 weeks, ref Ho et al., 2014, listed as telcagepant); 3.2% in data set [1] (280 mg BID 12 weeks, ref Ho et al., 2014). Also, the Vmax of taurocholate turned out to be 186.3 pmol/mg protein/min at BSEP (inhibitor 2.5 µM), 208.1 pmol/mg protein/min on BSEP (inhibitor 5 µM), 77.52 pmol/mg protein/min on BSEP (inhibitor 10 µM) and 119.7 pmol/mg protein/min at BSEP (inhibitor 20 µM). Moreover, on BSEP (mixed inhibition model), the “alpha (mixed inhibition model)” value came to 4.6. In addition, on BSEP, the BSEP inhibition type entry was “likely to be a mixed BSEP inhibitor”. The Ki on BSEP (setting [6]) came to 7.9 µM. For the same molecule, on BSEP, the “inhibition of BSEP-mediated probe substrate transport” value was “inhibited”. At BSEP (vesicular transport, taurocholate, read-out: BSEP estimated IC50), the IC50 was 10.2 µM. Moreover, at BSEP (vesicular transport, up to 20 µM), the BSEP inhibition was more than 50%. Moreover, the figures for the “Pivotal conventional nonclinical toxicology study liver findings” value with mouse (6M mouse), with rats (3M rat) and in the data set on rats (6M rat) were < 2× ALT/AST with no liver histopathology, < 3× ALT/AST with no liver histopathology and “no liver safety signal”, respectively. Also, the exposure margin with mouse (6M mouse) is 14 ×; in the data set with rats (3M rat), 15 ×; in the data set on rats (6M rat), 7 ×. Moreover, the “formation” value on CYP3A4 was “did not”. In data set [2] (aqueous buffer, BSEP, MRP3, MRP4 vesicular transport assays), the solubility was 20 µM (≈ 11.3 µg/mL). In data set [3], the “maximum liver safe daily dose predicted from BA-LRA” value was less than 600 mg. Further, in data set [3], the “upregulation of pathways associated” value was “upregulated pathways associated with electrophilic and proteasomal stress”. The BA-LRA score in data set [3] (rat liver, 400 mg/kg/day × 4 days, evidence of transcriptional suppression) is 0.30.

These data come from article PMC8312697, “Mechanistic Investigations Support Liver Safety of Ubrogepant” (Toxicological Sciences, 2020).
